Reference: patent US20040018623A1, “Medium for preparing dedifferentiated cells” (priority 1999, published 2004)

Experiments:
isolated canine islets = experiment: Islet-cystic (duct epithelial) transformation / transdifferentiation of isolated islets; type: cell-based; settings: for cystic transformation, % of control: at 72 hours, islets pre-incubated prior to embedding in collagen, control = DMEM/F12-CT group; for ductal transformation in suspension with soluble matrix protein: islets in suspension in DMEM/F12-CT supplemented with soluble protein (50 μg/ml)
[1] = target: integrins (on isolated canine islet cells) (dog); experiment: cell-based or functional assay

| Molecule | cystic transformation, % of control (isolated canine islets) | ductal transformation in suspension with soluble matrix protein (isolated canine islets) | other results |
| --- | --- | --- | --- |
| GRGESP [control peptide, reference compound] |  |  | influence on the transformation process (isolated canine islets; islets pre-incubated with peptide (400 μg/ml) prior to embedding in collagen): little influence |
| fibronectin | 50 % of control | failed to undergo ductal transformation |  |
| laminin | 50 % of control | failed to undergo ductal transformation |  |
| GRGDSP [reference compound] | 57 % of control |  | islet cell transdifferentiation after prior incubation of freshly isolated islets with peptide (isolated canine islets; prior incubation of islets with the peptide): partially blocked |
| GRGDSP [RGD-motif containing GRGDSP peptide] |  |  | islet-cystic transformation at 72 hours, percent of the control DMEM/F12-CT group [1]: 57 % of control |
